Biological target: Ras-related C3 botulinum toxin substrate 1 (Mus musculus, UniProt P63001)
Test: activated mutant Rac1 GTP binding inhibitors, SAR follow-up, biochemical, additional analogs, multiplex bead flow cytometry (AID 2039)

SMILES: O=C1Nc2c(Br)cccc2C1=C1Nc2ccccc2C1=O
- Ki: 2510 nM

SMILES: O=C1NC(=O)/C(=C2/C(=O)Nc3ccccc32)N1
- Ki: 1060 nM

SMILES: O=C1Nc2ccc(Br)cc2C1=C1Nc2ccccc2C1=O
- Ki: 1110 nM

SMILES: O=C1N=c2ccc(Br)cc2=C1c1[nH]c2ccccc2c1NO [5-bromanyl-3-[3-(oxidanylamino)-1H-indol-2-yl]indol-2-one]
- Ki: 2980 nM

SMILES: O=C1N=c2c(F)cccc2=C1c1[nH]c2ccccc2c1NO [7-fluoro-3-[3-(hydroxyamino)-1H-indol-2-yl]-2-indolone]
- Ki: 2870 nM

SMILES: O=C1NC(=S)N/C1=C1\C(=O)Nc2ccccc21 [(3Z)-3-(5-oxo-2-sulfanylideneimidazolidin-4-ylidene)-1H-indol-2-one]
- Ki: 640 nM

— BindingDB's records for doi:10.7270/Q20V8B7J (Nmmlsc, 2009)
